# Measurements published in patent US20260345603A1, “PRMT5 INHIBITORS” (Beijing Earthwise Technology Co., Ltd., priority 2022, published 2026).
# Tested on: HCT116^MTAP Deletion cells
# Experiment: Anti-proliferation assay on cells (CTG, 10 days), HCT116 MTAP Deletion
# Assay type: cell-based
# Conditions: Homo sapiens, HCT-116, 240 h, anti-proliferative activity, HCT116 MTAP Deletion, 10 days, class symbols; read-out: HCT116^MTAP Deletion GI50
# Method: HCT116^MTAD Deletion cells were from Pharmaron (China); HCT116 cells were from ATCC; McCoy's 5A medium was purchased from Invitrogen (USA); penicillin-streptomycin and fetal bovine serum were purchased from Gibco (USA); a 384-well plate was purchased from PerkinElmer (USA); and Cell-Titer Glo reagent was purchased from Promega (USA).
# Compound dissolution: All the compounds were dissolved in dimethyl sulfoxide (DMSO) and then stored. The compounds were stored at room temperature in a dry condition for 3 months for short term storage or at −20 °C for long term storage.
# The cells were cultured strictly in accordance with ATCC requirements. The cell culture medium (McCoy's 5A medium+10% fetal bovine serum+1% penicillin+streptomycin) was transferred to a 15 mL centrifuge tube and centrifuged at 1000 rpm for 5 min. The supernatant was removed. The cells were resuspended with complete culture medium, inoculated into a culture dish at the required density, and cultured in an incubator at 37 °C, 95% humid air, and 5% carbon dioxide. The culture medium was replenished or the cells were passaged every 2-3 days depending on the cell growth condition.
# When the confluency of cells in the culture dish reached about 90%, the cells were washed twice with PBS, and then treated with trypsin to become single cells. The cells were counted, and 40 μl of the cells was inoculated into each well of a 384-well plate (50 cells/well). The plate was equilibrated at 37 °C and 5% carbon dioxide for 10 to 15 minutes. The compounds were injected into the 384-well plate using Echo550, and positive control and negative control (0.1% DMSO) were set up. Each compound was subjected to a 3-fold dilution, resulting in 10 concentration gradients, in duplicate, and the content of DMSO was 0.1%. The 384-well plate was incubated in a cell culture incubator for 10 days.
# Then, 40 μl of cell proliferation assay reagent (CTG) was added to the 384-well plate, and the plate was shaken to mix well. Then, the 384-well plate was incubated at 37 °C and 5% carbon dioxide in the dark for 30 minutes. The data were read using the Envision multifunctional microplate reader. […] According to the different drug concentrations and their corresponding inhibition rates, the GI50 curve was drawn using GraphPad 8.0 software. The data were analyzed, and the final GI50 value was obtained.
row,GI50,SMILES
1,100 to 1000 nM,C[C@H](c1ncccn1)N(Cc1ccc(C(F)(F)F)cn1)C(=O)C(=O)Nc1cnc(N)c2ccncc12 [Example 32]
2,100 to 1000 nM,Cc1cc(NC(=O)C(=O)N(Cc2ccc(C(F)(F)F)cn2)C2CCC2)cnc1N [Example 13]
3,100 to 1000 nM,Cc1nc(NC(=O)C(=O)N(Cc2ccc(C(F)(F)F)cn2)[C@H](C)c2ncccn2)cnc1N [Example 27]
4,10 to 100 nM,CC(c1cscn1)N(Cc1ccc(C(F)(F)F)cn1)C(=O)C(=O)Nc1cnc(N)c2c1cnn2C (centres unmarked) [Example 44]
5,100 to 1000 nM,Cc1cc(NC(=O)C(=O)N(C)C2COCc3cc(C4=CCOCC4)ccc32)cnc1N (racemic) [Compound 162]
6,100 to 1000 nM,Cc1cc(NC(=O)C(=O)N(Cc2ccc(C3=CCOCC3)nn2)[C@H](C)c2ncccn2)cnc1N [Example 42]
7,100 to 1000 nM,C[C@H](c1ncccn1)N(Cc1ccc(C(F)(F)F)cn1)C(=O)C(=O)Nc1cnc(N)c(Br)c1 [Example 24]
8,> 10000 nM,CCC(C)N(Cc1cnn(C)c1)C(=O)C(=O)Nc1cnc(N)c(C)c1 (centres unmarked) [Example 73]
9,100 to 1000 nM,Cc1cc(N)ncc1NC(=O)C(=O)N(Cc1ccc(C(F)(F)F)cn1)[C@H](C)c1ncccn1 [Example 26]
10,10 to 100 nM,CN1CC=C(c2ccc3c(c2)COCC3N(C)C(=O)C(=O)Nc2cnc(N)c3c2cnn3C)CC1 (centres unmarked) [Example 160]
11,> 10000 nM,C[C@H](c1ncccn1)N(Cc1ccc(C(F)(F)F)cn1)C(=O)C(=O)Nc1cnc(N)c2cncn12 [Example 38]
12,≤ 10 nM,CN(C(=O)C(=O)Nc1cnc(N)c2c1cnn2C)C1COc2cc(-c3ccnn3C3CC3)ccc21 (centres unmarked) [Example 212]
13,10 to 100 nM,CCC(C)N(Cc1ccc(C(F)(F)F)cn1)C(=O)C(=O)Nc1cnc(N)c2c1cnn2C (racemic) [Example 46-P1]
14,10 to 100 nM,CCC(C)N(Cc1ccc(C(F)(F)F)cn1)C(=O)C(=O)Nc1cnc(N)c2c1cnn2C (centres unmarked) [Example 46-P2]
15,≤ 10 nM,CN(C(=O)C(=O)Nc1cnc(N)c2c1cnn2C)C1COCc2cc(C3=CCOCC3)ccc21 (centres unmarked) [Example 100]
16,10 to 100 nM,"Cc1cc(NC(=O)C(=O)N(Cc2ccc(C(F)(F)F)cn2)C(C)c2cscn2)cnc1N (single isomer, unassigned) [Example 19-P1]"
17,100 to 1000 nM,Nc1ncc(NC(=O)C(=O)N(Cc2ccc(C(F)(F)F)cn2)CC2CC2)c2c1COC2 [Example 40]
18,10 to 100 nM,Cc1cc(NC(=O)C(=O)N(Cc2ccc(C(F)(F)F)cn2)CC2CCCC2)cnc1N [Example 17]
19,≤ 10 nM,CC1OCC(N(C)C(=O)C(=O)Nc2cnc(N)c3c2cnn3C)c2ccc(C(F)(F)F)cc21 (centres unmarked) [Compound 187]
20,10 to 100 nM,"CCC(C)N(Cc1ccc(C(F)(F)F)cn1)C(=O)C(=O)Nc1cnc(N)c(C)c1 (single isomer, unassigned) [Example 45-P1]"
21,10 to 100 nM,COc1ncc(NC(=O)C(=O)N(Cc2ccc(C(F)(F)F)cn2)[C@H](C)c2ncccn2)cc1C(N)=O [Example 25]
22,100 to 1000 nM,Cc1cc(NC(=O)C(=O)N(Cc2ccc(C(F)(F)F)cn2)C2CCCC2)cnc1N [Example 11]
23,100 to 1000 nM,Cc1cc(NC(=O)C(=O)N(Cc2ccc(C(F)(F)F)cn2)c2cnn(C)c2)cnc1N [Example 18]
24,10 to 100 nM,CCOc1ccc(CN(C(=O)C(=O)Nc2cnc(N)c(C)c2)[C@H](C)c2ncccn2)nn1 [Example 35]
25,≤ 10 nM,CN(C(=O)C(=O)Nc1cnc(N)c2c1cnn2C)C1COCc2c1ccc(Cl)c2Cl (racemic) [Compound 168]
26,≤ 10 nM,CN(C(=O)C(=O)Nc1cnc(N)c2c1cnn2C)C1COCc2cc(Cl)c(Cl)cc21 (centres unmarked) [Example 163]
27,≤ 10 nM,CN(C(=O)C(=O)Nc1cnc(N)c2c1cnn2C)C1COc2cc(Cl)c(Cl)cc21 (racemic) [Compound 186]
28,10 to 100 nM,C[C@H](c1ncccn1)N(Cc1ccc(C(F)(F)F)cn1)C(=O)C(=O)Nc1cnc(N)c2c1COC2 [Example 2]

# Same assay, conditions: anti-proliferative activity, HCT116 MTAP Deletion, 10 days, class symbols; read-out: HCT116^MTAP Deletion GI50
row,GI50,SMILES
1,10 to 100 nM,"CN(C(=O)C(=O)Nc1cnc(N)c2c1cnn2C)C1COc2cc(C(F)(F)F)ccc21 (single isomer, unassigned) [Example 112-P2]"
